Among the data in PubChem BioAssay (NCI) are TGI values, retold here.

The structures appear in SMILES notation.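 Growth conditions: 96-well plates. Treatment: test compound, 48 hours, 5 concentrations. Analysis: linear interpolation between bracketing concentrations; unreached endpoints set to highest concentration. TGI denotes the concentration required for complete inhibition of growth.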

Test systems include A549 NSCLC; HCT-15 colon; COLO 205 colon; LOX IMVI melanoma; HOP-62 NSCLC; SF-295 CNS; BT-549 breast; HOP-92 NSCLC; ACHN renal; MOLT-4 leukemia; TK-10 renal; DU-145 prostate; HS 578T breast; MDA-N; M14 melanoma; UACC-257 melanoma.
Holding throughout (experiment): NCI-60 cell line screen, 48 h

Regarding `Cn1cccc1-c1ccc(-c2ccc(CO)[se]2)[se]1`, the TGI in the test on A549 NSCLC was greater than 100 µM; in the test with HCT-15 colon it was greater than 100 µM; in the test with COLO 205 colon it was greater than 86.4 µM; with LOX IMVI melanoma, greater than 70.6 µM; in the test on HOP-62 NSCLC it was greater than 88.1 µM; in the test on SF-295 CNS, greater than 95.8 µM. Also, the TGI is greater than 78.5 µM with BT-549 breast; greater than 100 µM in the test with HOP-92 NSCLC; greater than 100 µM in the test with ACHN renal; 71.4 µM in the test on MOLT-4 leukemia; greater than 100 µM in the test on TK-10 renal; 70.1 µM with DU-145 prostate. Further, the TGI in the test with HS 578T breast, in the test with MDA-N and in the test with M14 melanoma was greater than 100 µM in each case.
For `CCOC(=O)C1CC(C(=O)c2ccccc2)N2c3ccccc3-c3ccccc3C12` (stereo unspecified), the TGI in the test with A549 NSCLC, with HCT-15 colon, with COLO 205 colon, in the test on LOX IMVI melanoma, with HOP-62 NSCLC and with SF-295 CNS was greater than 100 µM in each case. Moreover, the TGI with BT-549 breast, with UACC-257 melanoma, in the test with HOP-92 NSCLC, in the test with ACHN renal, in the test on MOLT-4 leukemia and in the test on TK-10 renal was greater than 100 µM in each case. Besides, the TGI in the test on DU-145 prostate was greater than 100 µM; with HS 578T breast, 97.2 µM; with MDA-N it was greater than 100 µM; in the test on M14 melanoma, 74.2 µM.
In the case of `C=C(C(=O)O[C@H]1C/C(C)=C/CC/C(CO)=C/[C@H]2C(=O)OC(=C)[C@H]12)C(O)CO` (stereo partly specified), the TGI with A549 NSCLC was 49.8 µM; in the test with HCT-15 colon, 24.4 µM; with COLO 205 colon it was 13.4 µM; with LOX IMVI melanoma it was 36 µM; in the test on HOP-62 NSCLC it was greater than 59.9 µM; in the test with SF-295 CNS it was greater than 60.8 µM. Besides, the TGI was found to be 30.2 µM in the test on BT-549 breast; 24.1 µM in the test on UACC-257 melanoma; 31.4 µM in the test with HOP-92 NSCLC; 24.8 µM in the test with ACHN renal; 13.2 µM in the test with MOLT-4 leukemia; 20.3 µM in the test on TK-10 renal. In addition, the TGI in the test on DU-145 prostate is 33.4 µM; in the test on HS 578T breast it was 57.9 µM; with MDA-N, 25.3 µM; in the test with M14 melanoma, 28.5 µM.
In the case of `O=C(c1ccccc1)c1ccc2nc(-c3c(Cl)c(Cl)c(Cl)c(Cl)c3-c3nnc(-c4ccccc4)o3)[nH]c2c1`, the TGI with A549 NSCLC is greater than 100 µM; in the test with HCT-15 colon it was greater than 100 µM; with COLO 205 colon, greater than 100 µM; in the test with LOX IMVI melanoma, greater than 100 µM; with HOP-62 NSCLC, greater than 100 µM; with SF-295 CNS, 73.9 µM. Further, the TGI with BT-549 breast, with UACC-257 melanoma, in the test on HOP-92 NSCLC, in the test on ACHN renal, with MOLT-4 leukemia and in the test on TK-10 renal was greater than 100 µM in each case. The TGI is greater than 100 µM with DU-145 prostate, greater than 100 µM in the test on HS 578T breast, 15.5 µM in the test with MDA-N and greater than 100 µM in the test with M14 melanoma.
Consider `COc1cccc(N=N/C(=N/NC(=O)c2ccc(C)cc2)c2ccc(N(CCC#N)CCC#N)cc2OC)c1`, for which the TGI in the test on A549 NSCLC, with HCT-15 colon, with COLO 205 colon, in the test on LOX IMVI melanoma, in the test on HOP-62 NSCLC and with SF-295 CNS was greater than 100 µM each time. Moreover, the TGI with BT-549 breast, in the test with UACC-257 melanoma, in the test on HOP-92 NSCLC, with ACHN renal, in the test with MOLT-4 leukemia and in the test with TK-10 renal was greater than 100 µM throughout. In addition, the TGI with DU-145 prostate, in the test on HS 578T breast, with MDA-N and with M14 melanoma was greater than 100 µM throughout.
As for `O=C1COc2cc(N3CCN(c4cccc(C(F)(F)F)c4)CC3)ccc2N1`, the TGI with A549 NSCLC, in the test with HCT-15 colon, in the test on COLO 205 colon, with LOX IMVI melanoma, with HOP-62 NSCLC and with SF-295 CNS was greater than 100 µM each time. For the same compound, the TGI in the test with BT-549 breast, with UACC-257 melanoma, in the test with HOP-92 NSCLC, in the test on ACHN renal, in the test with MOLT-4 leukemia and in the test with TK-10 renal was greater than 100 µM throughout. Moreover, the TGI in the test with DU-145 prostate, with HS 578T breast, in the test with MDA-N and with M14 melanoma was greater than 100 µM in each case.
Take `Cc1c(C(=O)c2ccc(N)c3ccccc23)c2ccccc2n1CCN1CCOCC1`: the TGI was 99.1 µM in the test with A549 NSCLC; greater than 95.7 µM with HCT-15 colon; 86.9 µM in the test with COLO 205 colon; 59 µM in the test on LOX IMVI melanoma; greater than 90.1 µM in the test on HOP-62 NSCLC; 48.5 µM in the test on SF-295 CNS. Moreover, the TGI in the test on BT-549 breast is 80.1 µM; with UACC-257 melanoma, 58.5 µM; in the test on HOP-92 NSCLC, 75.6 µM; with ACHN renal, greater than 100 µM; in the test with MOLT-4 leukemia, greater than 67.7 µM; in the test on TK-10 renal, greater than 82.2 µM. The TGI with DU-145 prostate was greater than 95.2 µM; in the test with HS 578T breast it was 48.4 µM; with MDA-N, 55 µM; in the test with M14 melanoma, 63.7 µM.
Consider `Nc1ccc(-c2nc3ccccc3s2)cc1Cl`, for which the TGI in the test on A549 NSCLC is greater than 100 µM; with HCT-15 colon, greater than 100 µM; in the test on COLO 205 colon, greater than 100 µM; with LOX IMVI melanoma, greater than 100 µM; in the test with HOP-62 NSCLC it was 72.8 µM; with SF-295 CNS it was greater than 100 µM. The TGI with BT-549 breast, in the test on UACC-257 melanoma, in the test with HOP-92 NSCLC, in the test with ACHN renal, in the test on MOLT-4 leukemia and with DU-145 prostate was greater than 100 µM each time. In addition, the TGI in the test with HS 578T breast, in the test with MDA-N and in the test with M14 melanoma was greater than 100 µM throughout.
